# Like-named read-outs stand apart in the source and are kept apart here.
# What was measured:
# [1] = system: cytochrome P-450 drug metabolizing enzymes; assay: Cytochrome P-450 interaction; assay type: in vitro ADME
# Protocol: Peak levels are seen within 2-3 hours of oral administration. […] Steady-state is reached within 2-3 days with a twice daily regimen. […] The remainder undergoes conjugation with glucuronic acid to form acylglucuronides which are excreted primarily in the bile.
# [2] = Solid state and solubility properties; assay type: physicochemical
# [3] = system: patients with chronic atrial fibrillation; assay: PETRO phase 2 12-week dose finding study; assay type: in vivo, human
# Text: Primary endpoints were bleeding events and changes in D-dimer. […] Minor bleeding was dose related.
# [4] = system: patients with atrial fibrillation
# Protocol: The PETRO-Ex study was conducted in 52 centers in the United States, Denmark, The Netherlands, and Sweden.
# PETRO-Ex began while the PETRO study was ongoing and investigators were initially kept blinded to patient treatment group until PETRO was completed. Unblinding investigators to patient treatment was possible thereafter.
# Data were summarized descriptively; no hypothesis was to be tested. Events were analyzed on the basis of the treatment at onset. Incidences were reported as of patients with events as well as normalized to 100 patient-years on the respective treatment.
# Patients who were down titrated to 50 mg q.d. based on a glomerular filtration rate≦50 mL/min during PETRO were excluded from the long-term trial; patients down-titrated in other dose levels remained on the q.d. treatment at that dose.
# The total exposure reflects both trials, PETRO and PETRO-Ex, together.
compound,measurement,setting,value
"CCCCCCOC(=O)NC(=N)c1ccc(NCc2nc3cc(C(=O)N(CCC(=O)OCC)c4ccccn4)ccc3n2C)cc1 [Dabigatran etexilate, 1-methyl-2-[N-[4-(N-n-hexyloxycarbonylamidino)phenyl]aminomethyl]benzimidazol-5-ylcarboxylic acid-N-(2-pyridyl)-N-(2-ethoxycarbonylethyl)amides]","metabolism by, induction or inhibition of cytochrome P-450 drug metabolizing enzymes",[1],not metabolized by and does not induce or inhibit
same,hygroscopicity,[2],hygroscopic
same,solubility in water,[2],sparingly soluble in water
same,Major bleeding events,[3]; 300 mg b.i.d. plus ASA groups,6%
same,"major bleeding events, number",[3]; 300 mg b.i.d. plus ASA groups,Four
same,Minor bleeding,"[3]; 50, 150, 300 mg b.i.d.",dose related
same,Elevated transaminases >3× upper limit of normal (ULN),[3]; all dabigatran etexilate-treated patients,0.9%
same,"Elevated transaminases >3× upper limit of normal (ULN), number of patients",[3]; of 432 dabigatran etexilate-treated patients,4
same,"ALT or AST >2xULN, number",[4]; 50 mg b.i.d.,0
same,"ALT or AST >3xULN and Bili >2xULN within 30 days, number",[4]; 50 mg b.i.d.,0
same,"ALT or AST >3xULN, number",[4]; 50 mg b.i.d.,0
same,"ALT or AST >5xULN, number",[4]; 50 mg b.i.d.,0
same,"Adverse Events leading to premature discontinuation, number",[4]; 50 mg b.i.d.,5
same,"Adverse Events leading to premature discontinuation, rate",[4]; 50 mg b.i.d.,21.3 per 100 patient-years
same,"MI, number",[4]; 50 mg b.i.d.,0
same,"Major Bleeds with aspirin, number",[4]; 50 mg b.i.d.,0
same,"Major Bleeds without aspirin, number",[4]; 50 mg b.i.d.,0
same,"Major Bleeds, number",[4]; 50 mg b.i.d.,0
same,"Other MACE, number",[4]; 50 mg b.i.d.,2
same,"Stroke and Systemic Thromboembolism, number",[4]; 50 mg b.i.d.,3
same,"TIA, number",[4]; 50 mg b.i.d.,0
same,"ALT or AST >2xULN, number",[4]; 50 mg q.d.,0
same,"ALT or AST >3xULN and Bili >2xULN within 30 days, number",[4]; 50 mg q.d.,0
same,"ALT or AST >3xULN, number",[4]; 50 mg q.d.,0
same,"ALT or AST >5xULN, number",[4]; 50 mg q.d.,0
same,"Adverse Events leading to premature discontinuation, number",[4]; 50 mg q.d.,0
same,"MI, number",[4]; 50 mg q.d.,0
same,"Major Bleeds with aspirin, number",[4]; 50 mg q.d.,0
same,"Major Bleeds without aspirin, number",[4]; 50 mg q.d.,0
same,"Major Bleeds, number",[4]; 50 mg q.d.,0
same,"Other MACE, number",[4]; 50 mg q.d.,0
same,"Stroke and Systemic Thromboembolism, number",[4]; 50 mg q.d.,0
same,"TIA, number",[4]; 50 mg q.d.,0
same,"ALT or AST >2xULN, number",[4]; 150 mg b.i.d.,21
same,"ALT or AST >2xULN, rate",[4]; 150 mg b.i.d.,3.1 per 100 patient-years
same,"ALT or AST >3xULN and Bili >2xULN within 30 days, number",[4]; 150 mg b.i.d.,3
same,"ALT or AST >3xULN and Bili >2xULN within 30 days, rate",[4]; 150 mg b.i.d.,0.4 per 100 patient-years
same,"ALT or AST >3xULN, number",[4]; 150 mg b.i.d.,13
same,"ALT or AST >3xULN, rate",[4]; 150 mg b.i.d.,1.9 per 100 patient-years
same,"ALT or AST >5xULN, number",[4]; 150 mg b.i.d.,7
same,"ALT or AST >5xULN, rate",[4]; 150 mg b.i.d.,1.0 per 100 patient-years
same,"Adverse Events leading to premature discontinuation, number",[4]; 150 mg b.i.d.,67
same,"Adverse Events leading to premature discontinuation, rate",[4]; 150 mg b.i.d.,9.8 per 100 patient-years
same,"MI, number",[4]; 150 mg b.i.d.,6
same,"Major Bleeds with aspirin, number",[4]; 150 mg b.i.d.,11
same,"Major Bleeds with aspirin, rate",[4]; 150 mg b.i.d.,8.7 per 100 patient-years
same,"Major Bleeds without aspirin, number",[4]; 150 mg b.i.d.,18
same,"Major Bleeds without aspirin, rate",[4]; 150 mg b.i.d.,3.2 per 100 patient-years
same,"Major Bleeds, number",[4]; 150 mg b.i.d.,29
same,"Major Bleeds, rate",[4]; 150 mg b.i.d.,4.2 per 100 patient-years
same,Major bleeding events,[4]; 150 mg b.i.d.,4.2 % per year
same,"Other MACE, number",[4]; 150 mg b.i.d.,7
same,"Stroke and Systemic Thromboembolism, number",[4]; 150 mg b.i.d.,7
same,"TIA, number",[4]; 150 mg b.i.d.,1
same,"fatal major bleeds, number",[4]; 150 mg b.i.d.,4
same,"ALT or AST >2xULN, number",[4]; 150 mg q.d.,2
same,"ALT or AST >2xULN, rate",[4]; 150 mg q.d.,3.4 per 100 patient-years
same,"ALT or AST >3xULN and Bili >2xULN within 30 days, number",[4]; 150 mg q.d.,0
same,"ALT or AST >3xULN, number",[4]; 150 mg q.d.,0
same,"ALT or AST >5xULN, number",[4]; 150 mg q.d.,0
same,"Adverse Events leading to premature discontinuation, number",[4]; 150 mg q.d.,8
same,"Adverse Events leading to premature discontinuation, rate",[4]; 150 mg q.d.,13.7 per 100 patient-years
same,"MI, number",[4]; 150 mg q.d.,0
same,"Major Bleeds with aspirin, number",[4]; 150 mg q.d.,0
same,"Major Bleeds without aspirin, number",[4]; 150 mg q.d.,3
same,"Major Bleeds without aspirin, rate",[4]; 150 mg q.d.,6.5 per 100 patient-years
same,"Major Bleeds, number",[4]; 150 mg q.d.,3
same,"Major Bleeds, rate",[4]; 150 mg q.d.,5.1 per 100 patient-years
same,"Other MACE, number",[4]; 150 mg q.d.,0
same,"Stroke and Systemic Thromboembolism, number",[4]; 150 mg q.d.,3
same,"TIA, number",[4]; 150 mg q.d.,0
same,"ALT or AST >2xULN, number",[4]; 300 mg b.i.d.,4
same,"ALT or AST >2xULN, rate",[4]; 300 mg b.i.d.,4.9 per 100 patient-years
same,"ALT or AST >3xULN and Bili >2xULN within 30 days, number",[4]; 300 mg b.i.d.,0
same,"ALT or AST >3xULN, number",[4]; 300 mg b.i.d.,2
same,"ALT or AST >3xULN, rate",[4]; 300 mg b.i.d.,2.4 per 100 patient-years
same,"ALT or AST >5xULN, number",[4]; 300 mg b.i.d.,1
same,"ALT or AST >5xULN, rate",[4]; 300 mg b.i.d.,1.2 per 100 patient-years
same,"Adverse Events leading to premature discontinuation, number",[4]; 300 mg b.i.d.,21
same,"Adverse Events leading to premature discontinuation, rate",[4]; 300 mg b.i.d.,25.6 per 100 patient-years

# Source: patent publication US20120282187A1 (BOEHRINGER INGELHEIM INTERNATIONAL GMBH, priority 2008, published 2012)
